This note sets out measurements from patent US10681909B2, “Herbicidal triazoles” (FMC Corporation, priority 2014, dated 2020).

For one assay, the system named is crabgrass, large. Briefly: Test A preemergence. The format is in vivo, Digitaria sanguinalis. Particulars: Digitaria sanguinalis, pre-emergence, 240 h, 0 to 100 scale (0 no effect, 100 complete control), read-out: Plant response rating, Crabgrass, Large; for pest or weed control at 125 g/ha: 125 g ai/ha; for pest or weed control at 500 g/ha: 500 g ai/ha, approx. 10 d. The procedure, abridged: (§1)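 Loam/sand soil mix; compound in non-phytotoxic solvent + surfactant. Pre: directed soil spray right after planting seed. Post: potted plants 2–10 cm, 1–2 leaf stage, sprayed with same formulation.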

A further assay has as its system wheat. As to the kind of experiment: Test A preemergence. The format is in vivo, Triticum aestivum. Conditions: Triticum aestivum, pre-emergence, 240 h, 0 to 100 scale (0 no effect, 100 complete control), read-out: Plant response rating, Wheat; for plant injury at 125 g/ha: 125 g ai/ha; for plant injury at 500 g/ha: 500 g ai/ha, approx. 10 d. The procedure, abridged:
as §1

A further assay deals with ryegrass, Italian. Briefly: Test C preemergence. It counts as in vivo, Lolium multiflorum. Conditions: for Ryegrass, Italian plant response rating (0 to 100): Preemergence, visual rating after 13 to 15 d; for Plant response rating (scale of 0 to 100 where 0 is no effect and 100 is complete control): Ryegrass, Italian, preemergence. The source says:
(§2) Seeds of plant species selected from blackgrass (Alopecurus myosuroides), ryegrass, Italian (Italian ryegrass, Lolium multiflorum), wheat (winter wheat, Triticum aestivum), galium (catchweed bedstraw, Galium aparine), corn (Zea mays), crabgrass, large (large crabgrass, Digitaria sanguinalis), foxtail, giant, (giant foxtail, Setaria faberii), johnsongrass (Sorghum halepense), lambsquarters (Chenopodium album), morningglory (Ipomoea coccinea), nutsedge, yellow (yellow nutsedge, Cyperus esculentus), pigweed (Amaranthus retroflexus), ragweed (common ragweed, Ambrosia elatior), soybean (Glycine max), barnyardgrass (Echinochloa crus-galli), oilseed rape (Brassica napus), waterhemp (common waterhemp, Amaranthus rudis), and velvetleaf (Abutilon theophrasti) were planted into a blend of loam soil and sand and treated preemergence with test chemicals formulated in a non-phytotoxic solvent mixture which included a surfactant. At the same time, plants selected from these crop and weed species and also chickweed (common chickweed, Stellaria media), oat, wild (wild oat, Avena fatua), and kochia (Kochia scoparia), were planted in pots containing Sunshine Redi-Earth® planting medium comprising spaghnum peat moss, vermiculite, starter nutrients and dolomitic limestone and treated with postemergence applications of test chemicals formulated in the same manner. Plants ranged in height from 2 to 18 cm (1- to 4-leaf stage) for postemergence treatments. […] A dash (-) response means no test result.

A further assay deals with lambsquarters. Briefly: Test C preemergence. Conditions: for Plant response rating (scale of 0 to 100 where 0 is no effect and 100 is complete control): Lambsquarters, preemergence; for Lambsquarters plant response rating (0 to 100): Preemergence, visual rating after 13 to 15 d. The format is in vivo, Chenopodium album.
Excerpt: as §2

A further assay concerns ragweed. Briefly: Test C preemergence. It counts as in vivo, Ambrosia elatior. Particulars: for Ragweed plant response rating (0 to 100): Preemergence, visual rating after 13 to 15 d; for Plant response rating (scale of 0 to 100 where 0 is no effect and 100 is complete control): Ragweed, preemergence.
Excerpt: as §2

On to `Cn1nc(-c2ccc(F)cc2)nc1C(O)c1ccnc(C(F)(F)F)c1` (stereo not drawn) [Compound 14, α-[3-(4-fluorophenyl)-1-methyl-1H-1,2,4-triazol-5-yl]-2-(trifluoromethyl)-4-pyridinemethanol], for which, in the assay with crabgrass, large, the pest or weed control at 125 g/ha was determined as 60% and the pest or weed control at 500 g/ha is 100%. Further, in the assay on wheat, the plant injury at 125 g/ha was determined as 0% and the plant injury at 500 g/ha was 0%.

`CCn1nc(-c2ccc(F)cc2)nc1C(O)c1ccnc(C(F)(F)F)c1` (stereo not drawn) [Compound 15, α-[1-Ethyl-3-(4-fluorophenyl)-1H-1,2,4-triazol-5-yl]-2-(trifluoromethyl)-4-pyridinemethanol]: in the assay with crabgrass, large, the pest or weed control at 125 g/ha was determined as 10% and the pest or weed control at 500 g/ha came to 30%. Moreover, in the assay on wheat, the plant injury at 125 g/ha was found to be 0% and the plant injury at 500 g/ha amounted to 0%.

With `CCCn1nc(-c2ccc(F)cc2)nc1Cc1ccnc(C(F)(F)F)c1` [Compound 17, 4-[[3-(4-fluorophenyl)-1-propyl-1H-1,2,4-triazol-5-yl]methyl]-2-(trifluoromethyl)pyridine], in the assay with crabgrass, large, the pest or weed control at 125 g/ha is 100% and the pest or weed control at 500 g/ha amounted to 100%. Moreover, in the assay with wheat, the plant injury at 125 g/ha is 30% and the plant injury at 500 g/ha was 70%.

For `CCn1nc(-c2ccc(F)cc2)nc1C(=O)c1ccnc(C(F)(F)F)c1` [Compound 19, [1-ethyl-3-(4-fluorophenyl)-1H-1,2,4-triazol-5-yl][2-(trifluoromethyl)-4-pyridinyl]methanone], in the assay on crabgrass, large, the pest or weed control at 125 g/ha worked out at 0% and the pest or weed control at 500 g/ha is 50%. In the assay with wheat, the plant injury at 125 g/ha amounted to 0% and the plant injury at 500 g/ha amounted to 0%.

On to `Cn1nc(-c2ccc(F)cc2)nc1Oc1cccc(C(F)(F)F)c1` [Compound 5, 3-(4-fluorophenyl)-1-methyl-5-[3-(trifluoromethyl)phenoxy]-1H-1,2,4-triazole], for which, in the assay with crabgrass, large, the pest or weed control at 125 g/ha is 70% and the pest or weed control at 500 g/ha came out at 100%. In addition, in the assay with wheat, the plant injury at 125 g/ha is 0% and the plant injury at 500 g/ha is 0%.

`COc1nc(-c2ccccc2)nn1Cc1ccnc(C(F)(F)F)c1` [Compound 32]: the “Ryegrass, Italian plant response rating (0 to 100)” value (“Ryegrass … (0 to 100)” for short) in the assay with ryegrass, Italian (31 g ai/ha) is reported as 0; in the assay on ryegrass, Italian (62 g ai/ha), 0. Also, the “Plant response rating (scale of 0 to 100 where 0 is no effect and 100 is complete control)” value with ryegrass, Italian (125 g ai/ha) is 0; in the assay with ryegrass, Italian (250 g ai/ha), 10; in the assay with lambsquarters (125 g ai/ha), 80; in the assay with lambsquarters (250 g ai/ha), 90; in the assay on ragweed (125 g ai/ha), 10; with ragweed (250 g ai/ha), 65. For the same compound, the “Lambsquarters plant response rating (0 to 100)” value in the assay on lambsquarters (31 g ai/ha) and in the assay with lambsquarters (62 g ai/ha) was 60 throughout. Also, the “Ragweed plant response rating (0 to 100)” value with ragweed (31 g ai/ha) was determined as 0; in the assay with ragweed (62 g ai/ha), 5.

Consider `CS(=O)(=O)c1nc(-c2ccc(F)cc2)nn1Cc1ccnc(C(F)(F)F)c1` [Compound 29, 4-[[3-(4-fluorophenyl)-5-(methylsulfonyl)-1H-1,2,4-triazole-1-yl]methyl]-2-(trifluoromethyl)pyridine], for which, in the assay on crabgrass, large, the pest or weed control at 125 g/ha amounted to 0% and the pest or weed control at 500 g/ha came out at 0%. In addition, in the assay on wheat, the plant injury at 125 g/ha was 0% and the plant injury at 500 g/ha was 0%.

In the case of `CCCc1nc(-c2ccc(F)cc2)nn1Cc1ccnc(C(F)(F)F)c1` [Compound 6, 4-[[3-(4-fluorophenyl)-5-propyl-1H-1,2,4-triazol-1-yl]methyl]-2-(trifluoromethyl)pyridine], the pest or weed control at 125 g/ha in the assay on crabgrass, large was 100%. Besides, the pest or weed control at 500 g/ha in the assay on crabgrass, large stood at 100%. The plant injury at 125 g/ha in the assay with wheat was determined as 10%. Moreover, the plant injury at 500 g/ha in the assay on wheat stood at 60%. Further, the “Ryegrass … (0 to 100)” value worked out at 30 with ryegrass, Italian (31 g ai/ha) and 70 in the assay on ryegrass, Italian (62 g ai/ha). Further, the “Plant response rating (scale of 0 to 100 where 0 is no effect and 100 is complete control)” value in the assay with ryegrass, Italian (125 g ai/ha) is recorded as 80; in the assay on ryegrass, Italian (250 g ai/ha) it was 100; in the assay on lambsquarters (125 g ai/ha), 98; with lambsquarters (250 g ai/ha), 98; in the assay with ragweed (125 g ai/ha), 55; in the assay on ragweed (250 g ai/ha), 80. For the same compound, the “Lambsquarters plant response rating (0 to 100)” value with lambsquarters (31 g ai/ha) and in the assay with lambsquarters (62 g ai/ha) was 98 in each case. The “Ragweed plant response rating (0 to 100)” value with ragweed (31 g ai/ha) and with ragweed (62 g ai/ha) was 20 in each case.

Consider `COc1nc(-c2ccc(F)cc2)nn1Cc1ccnc(C(F)(F)F)c1` [Compound 9, 4-[[3-(4-fluorophenyl)-5-methoxy-1H-1,2,4-triazol-1-yl]methyl]-2-(trifluoromethyl)pyridine], for which the pest or weed control at 125 g/ha with crabgrass, large amounted to 100%. In addition, in the assay with crabgrass, large, the pest or weed control at 500 g/ha was 100%. In the assay with wheat, the plant injury at 125 g/ha came out at 0%. The plant injury at 500 g/ha in the assay with wheat worked out at 50%. Moreover, the “Ryegrass … (0 to 100)” value came out at 5 in the assay on ryegrass, Italian (31 g ai/ha) and 25 in the assay with ryegrass, Italian (62 g ai/ha). For the same compound, the “Plant response rating (scale of 0 to 100 where 0 is no effect and 100 is complete control)” value was found to be 65 with ryegrass, Italian (125 g ai/ha); 85 in the assay with ryegrass, Italian (250 g ai/ha); 98 in the assay on lambsquarters (125 g ai/ha); 98 in the assay on lambsquarters (250 g ai/ha); 60 in the assay on ragweed (125 g ai/ha); 85 in the assay on ragweed (250 g ai/ha). Further, the “Lambsquarters plant response rating (0 to 100)” value turned out to be 70 with lambsquarters (31 g ai/ha) and 85 in the assay on lambsquarters (62 g ai/ha). For the same compound, the entries for the “Ragweed plant response rating (0 to 100)” value with ragweed (31 g ai/ha) and with ragweed (62 g ai/ha) were 25 and 60, respectively.
